Test results published in ChEMBL document CHEMBL1201862, “PubChem BioAssay data set” (2004).
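Values below derive from 48-hour exposures of cells grown in 96-well plates, with endpoints linearly interpolated between the two concentrations bracketing the appropriate inhibition level. GI50 marks 50% less growth.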 Active and inactive are the calls of the source. Cut-off read from the data, not from the text of the source: active = GI50 up to about 1.1 µM and inactive = higher.

Tests used:
Assay in all cases: NCI-60 cell line screen, 48 h
SNB-75 = tested on: SNB-75
SF-268 = tested on: SF-268
SNB-19 = tested on: SNB-19
SK-MEL-2 = tested on: SK-MEL-2
HOP-62 = tested on: HOP-62
HCT-15 = tested on: HCT-15
OVCAR-3 = tested on: OVCAR-3
KM-20L2 = tested on: KM-20L2
IGROV-1 = tested on: IGROV-1
HOP-18 = tested on: HOP-18
COLO 205 = tested on: COLO 205
Malme-3M = tested on: Malme-3M
SN12C = tested on: SN12C
786-0 = tested on: 786-0
HL-60 = tested on: HL-60
ACHN = tested on: ACHN
SF-539 = tested on: SF-539
LXFL 529 = tested on: LXFL 529
HOP-92 = tested on: HOP-92
KM12 = tested on: KM12
DMS-273 = tested on: DMS-273
SK-OV-3 = tested on: SK-OV-3
SK-MEL-28 = tested on: SK-MEL-28
UACC-62 = tested on: UACC-62
SF-295 = tested on: SF-295
HT-29 = tested on: HT-29
NCI-H23 = tested on: NCI-H23
NCI-H522 = tested on: NCI-H522
HCT-116 = tested on: HCT-116
UACC-257 = tested on: UACC-257
SK-MEL-5 = tested on: SK-MEL-5
M14 = tested on: M14
DMS-114 = tested on: DMS-114
M19-MEL = tested on: M19-MEL
MOLT-4 = tested on: MOLT-4
OVCAR-5 = tested on: OVCAR-5
A549 = tested on: A549
NCI-H226 = tested on: NCI-H226
OVCAR-4 = tested on: OVCAR-4
HCC 2998 = tested on: HCC 2998
EKVX = tested on: EKVX
RXF 393 = tested on: RXF 393
DLD-1 = tested on: DLD-1
CAKI-1 = tested on: CAKI-1
NCI-H460 = tested on: NCI-H460
UO-31 = tested on: UO-31
TK-10 = tested on: TK-10
SNB-78 = tested on: SNB-78
OVCAR-8 = tested on: OVCAR-8
SW-620 = tested on: SW-620
A498 = tested on: A498
U-251 = tested on: U-251
LOX IMVI = tested on: LOX IMVI
SR = tested on: SR
K562 = tested on: K562
CCRF-CEM = tested on: CCRF-CEM
RPMI-8226 = tested on: RPMI-8226

`CC1=C(C(=O)Nc2ccccc2)C(c2ccccc2)C(C(=O)Nc2ccccc2)=C(C)N1` was tested, and the GI50 (SNB-75) was 37.3 µM (inactive), the GI50 (SF-268) was 42.5 µM (inactive) and the GI50 (SNB-19) was 94.4 µM (inactive). For the same compound, the GI50 (SK-MEL-2) was 32.1 µM (inactive), the GI50 (HOP-62) was > 100 µM (inactive) and the GI50 (HCT-15) was 23.4 µM. The GI50 (OVCAR-3) was 40.4 µM (inactive), the GI50 (KM-20L2) was 25.2 µM (inactive) and the GI50 (IGROV-1) was 75.9 µM (inactive). For the same compound, the GI50 (HOP-18) was > 100 µM (inactive), the GI50 (COLO 205) was 38.4 µM (inactive) and the GI50 (Malme-3M) was > 100 µM (inactive). The GI50 (SN12C) was > 100 µM (inactive), the GI50 (786-0) was 76.4 µM (inactive) and the GI50 (HL-60) was 16.3 µM (inactive). The GI50 (ACHN) was 17.6 µM (inactive), the GI50 (SF-539) was > 100 µM (inactive) and the GI50 (LXFL 529) was 22.1 µM (inactive). The GI50 (HOP-92) was 29.3 µM (inactive), the GI50 (KM12) was 17.3 µM (inactive) and the GI50 (DMS-273) was 47.4 µM (inactive). The GI50 (SK-OV-3) was > 100 µM (inactive), the GI50 (SK-MEL-28) was 55.8 µM (inactive) and the GI50 (UACC-62) was 15.4 µM (inactive). For the same compound, the GI50 (SF-295) was 38.5 µM (inactive), the GI50 (HT-29) was 32.2 µM (inactive) and the GI50 (NCI-H23) was 43.1 µM (inactive). For the same compound, the GI50 (NCI-H522) was 16.3 µM (inactive), the GI50 (HCT-116) was 26.5 µM (inactive) and the GI50 (UACC-257) was 36.1 µM (inactive). The GI50 (SK-MEL-5) was 36.9 µM (inactive), the GI50 (M14) was 31.5 µM (inactive) and the GI50 (DMS-114) was 19.2 µM (inactive). For the same compound, the GI50 (M19-MEL) was 28.9 µM (inactive), the GI50 (MOLT-4) was 18.7 µM (inactive) and the GI50 (OVCAR-5) was > 100 µM (inactive). For the same compound, the GI50 (A549) was 35.2 µM (inactive), the GI50 (NCI-H226) was > 100 µM (inactive) and the GI50 (OVCAR-4) was 60.7 µM (inactive). The GI50 (HCC 2998) was 31 µM (inactive), the GI50 (EKVX) was 76.4 µM (inactive) and the GI50 (RXF 393) was 26.5 µM (inactive). For the same compound, the GI50 (DLD-1) was 52.7 µM (inactive), the GI50 (CAKI-1) was 4.74 µM (inactive) and the GI50 (NCI-H460) was 45.8 µM (inactive). For the same compound, the GI50 (UO-31) was 71.6 µM (inactive), the GI50 (TK-10) was 91 µM (inactive) and the GI50 (SNB-78) was > 100 µM (inactive). The GI50 (OVCAR-8) was 75 µM (inactive), the GI50 (SW-620) was 47.5 µM (inactive) and the GI50 (A498) was 86.1 µM (inactive). The GI50 (U-251) was 48.1 µM (inactive).

In the case of `COC(=O)/C(C#N)=C1\NC(=O)c2ccccc21`, the GI50 (SNB-75) was 2.4 µM (inactive), the GI50 (SF-268) was > 100 µM (inactive) and the GI50 (SNB-19) was > 100 µM (inactive). For the same compound, the GI50 (HOP-62) was > 100 µM (inactive), the GI50 (HCT-15) was greater than 100 µM and the GI50 (OVCAR-3) was > 100 µM (inactive). The GI50 (KM-20L2) was > 100 µM (inactive), the GI50 (IGROV-1) was > 100 µM (inactive) and the GI50 (HOP-18) was > 100 µM (inactive). The GI50 (LOX IMVI) was > 100 µM (inactive), the GI50 (COLO 205) was > 100 µM (inactive) and the GI50 (Malme-3M) was > 100 µM (inactive). For the same compound, the GI50 (SN12C) was > 100 µM (inactive), the GI50 (786-0) was > 100 µM (inactive) and the GI50 (HL-60) was > 100 µM (inactive). The GI50 (SR) was > 100 µM (inactive), the GI50 (ACHN) was > 100 µM (inactive) and the GI50 (SF-539) was > 100 µM (inactive). For the same compound, the GI50 (LXFL 529) was > 100 µM (inactive), the GI50 (HOP-92) was > 100 µM (inactive) and the GI50 (KM12) was > 100 µM (inactive). For the same compound, the GI50 (DMS-273) was > 100 µM (inactive), the GI50 (SK-OV-3) was > 100 µM (inactive) and the GI50 (SK-MEL-28) was > 100 µM (inactive). The GI50 (UACC-62) was > 100 µM (inactive), the GI50 (SF-295) was > 100 µM (inactive) and the GI50 (HT-29) was > 100 µM (inactive). For the same compound, the GI50 (NCI-H23) was > 100 µM (inactive), the GI50 (NCI-H522) was > 100 µM (inactive) and the GI50 (HCT-116) was > 100 µM (inactive). For the same compound, the GI50 (UACC-257) was > 100 µM (inactive), the GI50 (SK-MEL-5) was > 100 µM (inactive) and the GI50 (K562) was > 100 µM (inactive). The GI50 (M14) was > 100 µM (inactive), the GI50 (DMS-114) was > 100 µM (inactive) and the GI50 (M19-MEL) was > 100 µM (inactive). For the same compound, the GI50 (MOLT-4) was > 100 µM (inactive), the GI50 (OVCAR-5) was > 100 µM (inactive) and the GI50 (A549) was > 100 µM (inactive). The GI50 (NCI-H226) was > 100 µM (inactive), the GI50 (OVCAR-4) was > 100 µM (inactive) and the GI50 (HCC 2998) was > 100 µM (inactive). For the same compound, the GI50 (EKVX) was > 100 µM (inactive), the GI50 (RXF 393) was > 100 µM (inactive) and the GI50 (DLD-1) was > 100 µM (inactive). For the same compound, the GI50 (NCI-H460) was > 100 µM (inactive), the GI50 (UO-31) was > 100 µM (inactive) and the GI50 (CCRF-CEM) was > 100 µM (inactive). The GI50 (TK-10) was > 100 µM (inactive), the GI50 (SNB-78) was > 100 µM (inactive) and the GI50 (OVCAR-8) was > 100 µM (inactive). For the same compound, the GI50 (SW-620) was > 100 µM (inactive), the GI50 (A498) was > 100 µM (inactive) and the GI50 (U-251) was > 100 µM (inactive). The GI50 (RPMI-8226) was > 100 µM (inactive).
